According to patent publication US20040110770A1, “Oxindoles which are inhibitors of CDK-1 and their application in therapeutics” (AVENTIS PHARMA SA, priority 2001, published 2004):
Where two headings read alike, the source gives them in different places.

Tests used:
[1] = tested on: Lovo; test: cells; settings: Homo sapiens, 288 h, read-out: IC50 inhibition of clonogenicity
Description: (§1) The Calc18 human tumour line is a gift from Professor G. Riou (Institut Gustave Roussy, Villejuif, France).
(§2) The cells in exponential growth phase are trypsinized, washed in PBS 1× and diluted to a final concentration of 5000 cells/ml in complete medium. The test products (in a volume of 50 μl) are added to 2.5 ml of suspension. […] The mixture is then immediately poured into Petri dishes and left at +4° C. for 5 minutes to solidify the agar.
(§3) The results are expressed as percentage of inhibition of the clonogenicity with respect to controls. The IC50 is determined graphically from the mean results determined for each concentration of compound.

[2] = tested on: HLF; test: cells; settings: Homo sapiens, 288 h, read-out: IC50 inhibition of clonogenicity
Description: as §1, §2, §3

[3] = tested on: C6; test: cells; settings: Rattus norvegicus, C6, 288 h, read-out: IC50 inhibition of clonogenicity
Description: as §1, §2, §3

[4] = tested on: HT-29; test: cells; settings: Homo sapiens, HT-29, 288 h, read-out: IC50 inhibition of clonogenicity
Description: as §1, §2, §3

[5] = tested on: HCT-116; test: cells; settings: Homo sapiens, HCT-116, 288 h, read-out: IC50 inhibition of clonogenicity
Description: as §1, §2, §3

[6] = tested on: PC-14; test: cells; settings: Homo sapiens, PC-14, 288 h, read-out: IC50 inhibition of clonogenicity
Description: as §1, §2, §3

[7] = tested on: HLE; test: cells; settings: Homo sapiens, 288 h, read-out: IC50 inhibition of clonogenicity
Description: as §1, §2, §3

[8] = tested on: HCT-8; test: cells; settings: Homo sapiens, HCT-8, 288 h, read-out: IC50 inhibition of clonogenicity
Description: as §1, §2, §3

[9] = tested on: PC-3; test: cells; settings: Homo sapiens, PC-3, 288 h, read-out: IC50 inhibition of clonogenicity
Description: as §1, §2, §3

[10] = tested on: Calc18; test: cells; settings: Homo sapiens, 288 h, read-out: IC50 inhibition of clonogenicity
Description: as §1, §2, §3

[11] = tested on: HCT-116 cells; test: cells; settings: Homo sapiens, HCT-116, 96 h, read-out: HCT-116 IC50 (inhibition of proliferation)
Description: The HCT-116 cells are cultured as a layer in a culture flask in Dulbecco's medium comprising L-glutamine 2 mM, penicillin 200 U/ml, streptomycin 2 μg/ml, with the addition of 10% of heat-inactivated foetal calf serum.
The incorporation of the dye in the cell, which reflects cell growth, is evaluated by spectrophotometry at a wavelength of 540 nm for each sample using a Dynatech MR5000 reading device.
For each compound concentration tested, the results are expressed as percentage of inhibition of cell growth and are calculated from the untreated control and from the cell-free (blank) culture medium according to the following formula:
(Value compound−value blank/value cell control−value blank)×100.

[12] = tested on: p34cdc2/cyclin B (CDK1/cyclin B); test: Inhibition of the p34cdc2/cyclin B activity (32P transfer from ATP to histone H1); assay type: biochemical, starfish or human recombinant
Description: The protein Histone H1 (type III-S) is obtained from Sigma. […] The reaction medium is prepared according to the following composition: 10 μl of enzymatic preparation are added to 5 μl of Histone H1 (5 mg/ml in buffer C) and to 7 μl of buffer C and mixed. 17.5 μl of the mixture are distributed in the tubes immediately before the test. 3 μl of inhibiting agent to be tested are added to each tube. The reaction is begun by the addition of 5 μl of the ATP solution, followed by incubating for 15 minutes at 30° C. The reaction is halted by the addition of 0.5 volumes of Laemli 3× buffer. […] The analysis and the quantification of the phosphorylation of the Histone H1 are carried out using an Instant-Imager device (Packard).

[13] = tested on: HCT-8 cells; settings: HCT-8, 48 hours
Description: The percentage of mitotic cells and of cells having apoptotic nuclear bodies is determined by examination and counting of a sample of at least 300 cells distributed over several points of the slide using a fluorescent microscope.

[14] = tested on: HCT-116 cells; settings: HCT-116, 1 μg/ml
Description: The HCT-116 cells are seeded in Nunc 6-well dishes.
The cells are treated with 30 μM BrDU for 30 minutes and then trypsinized. After fixing the cells in 1% paraformaldehyde for 16 hours, the latter are digested in pepsin/hydrochloric acid and then rinsed in PBS 1×. Immunolabelling is carried out with an anti-BrDU primary antibody (Becton Dickinson) and a GAM-FITC secondary antibody (Coulter). The DNA is subsequently labelled with propidium iodide in PBS comprising 1 mg/ml of boiled RNAse. This method makes it possible to count the cells in the G1, S and G2M phases.

SMILES: O=C1Nc2ccc(-c3cccnc3)cc2C1=Cc1cnc[nH]1 [Compound 1, 1,3-dihydro-3-(imidazol-4-ylmethylene)-5-(pyrid-3-yl)-2H-indolin-2-one]
- IC50 [1]: 0.9 µM
- IC50 [2]: 1.1 µM
- IC50 [3]: 10.8 µM
- IC50 [4]: 1.42 µM
- IC50 [5]: 0.28 µM
- IC50 [6]: 1.1 µM
- IC50 [7]: 1.2 µM
- IC50 [8]: 1.04 µM
- IC50 [9]: 0.19 µM
- IC50 [10]: 1.06 µM
- IC50 [11]: 0.28 µM
- CDK1 % inhibition at 10 μM [12]: 99%
- Apoptotic cells (%) ([13]; 0.1 μg/ml): 8.5%
- Apoptotic cells Factor/control ([13]; 0.1 μg/ml): 3.5
- Mitotic cells (%) ([13]; 0.1 μg/ml): 2.8%
- Mitotic cells Factor/control ([13]; 0.1 μg/ml): 0.4
- Apoptotic cells (%) ([13]; 1 μg/ml): 16%
- Apoptotic cells Factor/control ([13]; 1 μg/ml): 6.6
- Mitotic cells (%) ([13]; 1 μg/ml): 0.7%
- Mitotic cells Factor/control ([13]; 1 μg/ml): 0.1
- Apoptotic cells (%) ([13]; 10 μg/ml): 42.5%
- Apoptotic cells Factor/control ([13]; 10 μg/ml): 17.7
- Mitotic cells (%) ([13]; 10 μg/ml): 0.4%
- Mitotic cells Factor/control ([13]; 10 μg/ml): 0.06
- Cells in G1 phase (%) ([14]; contact time 4 h): 62.2%
- Cells in G2-M phase (%) ([14]; contact time 4 h): 16.4%
- Cells in S phase (%) ([14]; contact time 4 h): 20.1%
- Cells in G1 phase (%) ([14]; contact time 24 h): 26.8%
- Cells in G2-M phase (%) ([14]; contact time 24 h): 31.4%
- Cells in S phase (%) ([14]; contact time 24 h): 39.5%
- Cells in G1 phase (%) ([14]; contact time 48 h): 7.9%
- Cells in G2-M phase (%) ([14]; contact time 48 h): 58.9%
- Cells in S phase (%) ([14]; contact time 48 h): 30.9%
- Cells in G1 phase (%) ([14]; contact time 72 h): 7.8%
- Cells in S phase (%) ([14]; contact time 72 h): 5.1%

SMILES: CNC(=O)c1ccc2c(c1)C(=Cc1c[nH]cn1)C(=O)N2 [Compound 3, 1,3-dihydro-3-(imidazol-4-ylmethylene)-5-(N-methylcarboxamido)-2H-indolin-2-one]
- CDK1 % inhibition at 10 μM ([12]; 10 μM): 100%

SMILES: CC(=O)Nc1ccc2c(c1)C(=Cc1c[nH]cn1)C(=O)N2 [Compound 4, 1,3-dihydro-3-(imidazol-4-ylmethylene)-5-(acetylamino)-2H-indolin-2-one]
- CDK1 % inhibition at 10 μM ([12]; 10 μM): 100%

SMILES: O=C1Nc2ccc(Br)cc2C1=Cc1cnc[nH]1 [Compound 5-3]
- CDK1 % inhibition at 10 μM ([12]; 10 μM): 100%

SMILES: O=C1Nc2ccc([N+](=O)[O-])cc2C1=Cc1ccc[nH]1 [Compound 5-6]
- CDK1 % inhibition at 10 μM ([12]; 10 μM): 91%

SMILES: O=C1Nc2ccc(C(=O)c3cccs3)cc2C1=Cc1cnc[nH]1 [Compound 5-7]
- CDK1 % inhibition at 10 μM ([12]; 10 μM): 100%

SMILES: O=C1Nc2ccc([N+](=O)[O-])cc2C1=Cc1cnc[nH]1 [Compound 5-8]
- CDK1 % inhibition at 10 μM ([12]; 10 μM): 81%

SMILES: Cc1nc[nH]c1C=C1C(=O)Nc2ccc(-c3cccnc3)cc21 [Compound 5-10]
- CDK1 % inhibition at 10 μM ([12]; 10 μM): 100%

SMILES: Cc1nc[nH]c1C=C1C(=O)Nc2ccc(C(=O)O)cc21 [Compound 5-11]
- CDK1 % inhibition at 10 μM ([12]; 10 μM): 100%

SMILES: Cc1nc[nH]c1C=C1C(=O)Nc2ccc(S(N)(=O)=O)cc21 [Compound 5-12]
- CDK1 % inhibition at 10 μM ([12]; 10 μM): 100%
